In patent US7183278B1 (priority 1998, dated 2007):

Tested on: rice blast fungi (Pyricularia oryze)
Test: whole plant or invertebrate
Type: in vivo
Conditions: 144 h, read-out: protective value

Compound | pest or weed control at 100 ppm
COc1ccnc(C(=O)Nc2ccc(Oc3ccccc3)c(Cl)c2)c1O [Example 21, 3-Hydroxy-4-methoxy-3′-chloro-4′-phenoxypicolinanilide] | 80 to 100%
COc1ccnc(C(=O)NC2CCCCCCC2)c1O [Example 43, 3-Hydroxy-4-methoxy-N-cyclooctylpicolinamide] | 80 to 100%
COc1ccnc(C(=O)Nc2ccc(Oc3ccccc3)c(C(F)(F)F)c2)c1O [Example 22, 3-Hydroxy-4-methoxy-4′-phenoxy-3′-trifluoromethylpicolinanilide] | 80 to 100%
COc1ccnc(C(=O)Nc2ccc(C(C)(C)C)cc2)c1O [Example 114, 3-Hydroxy-4-methoxy-4′-t-butylpicolinanilide] | 80 to 100%
COc1ccnc(C(=O)NC23CC4CC(CC(C4)C2)C3)c1O [Example 45, 3-Hydroxy-4-methoxy-N-(1-adamantyl)picolinamide] | 80 to 100%
COc1ccnc(C(=O)NC(C)c2ccccc2)c1O (stereo not shown) [Example 69, 3-Hydroxy-4-methoxy-N-(1′-phenylethyl)picolinamide] | 80 to 100%
COc1ccnc(C(=O)Nc2ccc(C(F)(F)F)cc2)c1O [Example 115, 3-Hydroxy-4-methoxy-4′-trifluoromethylpicolinanilide] | 80 to 100%
COc1ccnc(C(=O)Nc2ccccc2)c1O [Example 60, 3-Hydroxy-4-methoxypicolinanilide] | 80 to 100%
COc1ccnc(C(=O)NCCC(C)(C)C)c1O [Example 88, 3-Hydroxy-4-methoxy-N-(3′,3′-dimethylbutyl)picolinamide] | 80 to 100%
CCCCCCCCNC(=O)c1nccc(OC)c1O [Example 86, 3-Hydroxy-4-methoxy-N-(n-octyl)picolinamide] | 80 to 100%
COc1ccnc(C(=O)Nc2ccc(OC(F)(F)F)cc2)c1O [Example 116, 3-Hydroxy-4-methoxy-4′-trifluoromethoxypicolinanilide] | 80 to 100%
CCC(C)NC(=O)c1nccc(OC)c1O (stereo not shown) [Example 82, 3-Hydroxy-4-methoxy-N-(sec-butyl)picolinamide] | 80 to 100%
COc1ccnc(C(=O)Nc2ccc(Oc3ccccc3)c(C)c2)c1O [Example 23, 3-Hydroxy-4-methoxy-3′-methyl-4′-phenoxypicolinanilide] | 80 to 100%
COc1ccnc(C(=O)Nc2ccc(F)cc2)c1O [Example 120, 3-Hydroxy-4-methoxy-4′-fluoropicolinanilide] | 80 to 100%
COc1ccnc(C(=O)NC2CCC2)c1O [Example 81, 3-Hydroxy-4-methoxy-N-cyclobutylpicolinamide] | 80 to 100%
COc1ccnc(C(=O)NCCC2=CCCCC2)c1O [Example 53, 3-Hydroxy-4-methoxy-N-(2′-(1-cyclohexenyl)ethyl)picolinamide] | 80 to 100%
COc1ccnc(C(=O)NCCC2CCCCC2)c1O [Example 63, 3-Hydroxy-4-methoxy-N-(2′-cyclohexylethyl)picolinamide] | 80 to 100%
COc1ccnc(C(=O)Nc2ccc(Oc3ccccc3)cc2)c1O [Example 9, 3-Hydroxy-4-methoxy-4′-phenoxypicolinanilide] | 80 to 100%
COc1ccnc(C(=O)NCc2ccc(Oc3ccccc3)cc2)c1O [Example 71, 3-Hydroxy-4-methoxy-N-(4′-phenoxybenzyl)picolinamide] | 80 to 100%
COc1ccnc(C(=O)Nc2ccc(C)cc2)c1O [Example 123, 3-Hydroxy-4-methoxy-4′-methylpicolinanilide] | 80 to 100%
COc1ccnc(C(=O)Nc2c(C)cc(Oc3ccccc3)cc2C)c1O [Example 55, 3-Hydroxy-4-methoxy-2′,6′-dimethyl-4′-phenoxypicolinanilide] | 80 to 100%
COc1ccnc(C(=O)NC2CCCCCC2)c1O [Example 57, 3-Hydroxy-4-methoxy-N-cycloheptylpicolinamide] | 80 to 100%

Compound | pest or weed control at 100 ppm
COc1ccnc(C(=O)Nc2ccccc2Oc2ccccc2)c1O [Example 12, 3-Hydroxy-4-methoxy-2′-phenoxypicolinanilide] | 80 to 100%
COc1ccnc(C(=O)Nc2cc(C(C)(C)C)cc(C(C)(C)C)c2)c1O [Example 38, 3-Hydroxy-4-methoxy-3′,5′-di-t-butylpicolinanilide] | 80 to 100%
COc1ccnc(C(=O)Nc2ccc3c(c2)OCCO3)c1O [Example 51, 3-Hydroxy-4-methoxy-(3′,4′-ethylenedioxy)picolinanilide] | 80 to 100%
COc1ccnc(C(=O)NC2CCCCCCCCCCC2)c1O [Example 42, 3-Hydroxy-4-methoxy-N-cyclododecylpicolinamide] | 80 to 100%
CCCCCCNC(=O)c1nccc(OC)c1O [Example 83, 3-Hydroxy-4-methoxy-N-(n-hexyl)picolinamide] | 80 to 100%
COc1ccnc(C(=O)Nc2ccc(C)cc2F)c1O [Example 121, 3-Hydroxy-4-methoxy-2′-fluoro-4′-methylpicolin-anilide] | 80 to 100%
COc1ccnc(C(=O)NC(C)(C)c2ccccc2)c1O [Example 70, 3-Hydroxy-4-methoxy-N-(1′-methyl-1′-phenylethyl)picolinamide] | 80 to 100%
COc1ccnc(C(=O)NC2CCCCC2)c1O [Example 59, 3-Hydroxy-4-methoxy-N-cyclohexylpicolinamide] | 80 to 100%
COc1ccnc(C(=O)Nc2ccc(Cc3ccccc3)cc2)c1O [Example 13, 3-Hydroxy-4-methoxy-4′-benzylpicolinanilide] | 80 to 100%
COc1ccnc(C(=O)NC2CCC(C)CC2)c1O (stereo not shown) [Example 78, 3-Hydroxy-4-methoxy-N-(4′-methylcyclohexyl)picolinamide] | 80 to 100%
COc1ccnc(C(=O)Nc2ccc(C3CCCCC3)cc2)c1O [Example 49, 3-Hydroxy-4-methoxy-4′-cyclohexylpicolinanilide] | 80 to 100%
COc1ccnc(C(=O)Nc2ccc(CC(C)(C)C)cc2)c1O [Example 125, 3-Hydroxy-4-methoxy-4′-neopentylpicolinanilide] | 80 to 100%
COc1ccnc(C(=O)NC(C)c2cccc3ccccc23)c1O (stereo not shown) [Example 30, 3-Hydroxy-4-methoxy-N-(1′-(1-naphthyl)ethyl)picolinamide] | 80 to 100%
COc1ccnc(C(=O)NCC2CCCCC2)c1O [Example 75, 3-Hydroxy-4-methoxy-N-(cyclohexylmethyl)picolinamide] | 80 to 100%
COc1ccnc(C(=O)Nc2ccc(Cl)cc2)c1O [Example 61, 3-Hydroxy-4-methoxy-4′-chloropicolinanilide] | 80 to 100%
COc1ccnc(C(=O)Nc2ccc(OCc3ccccc3)cc2)c1O [Example 39, 3-Hydroxy-4-methoxy-4′-benzyloxypicolinanilide] | 80 to 100%
COc1ccnc(C(=O)Nc2ccccn2)c1O [Example 126, 3-Hydroxy-4-methoxy-N-(2-pyridyl)picolinamide] | 80 to 100%
COc1ccnc(C(=O)NC2CCCC2)c1O [Example 79, 3-Hydroxy-4-methoxy-N-cyclopentylpicolinamide] | 80 to 100%
COc1ccnc(C(=O)Nc2cccc(Oc3ccccc3)c2)c1O [Example 11, 3-Hydroxy-4-methoxy-3′-phenoxypicolinanilide] | 80 to 100%
O=C(Nc1ccc(Oc2ccccc2)cc1)c1ncccc1O [Example 1, 3-Hydroxy-4′-phenoxypicolinanilide] | 80 to 100%
COc1ccnc(C(=O)Nc2cc(F)cc(F)c2)c1O [Example 122, 3-Hydroxy-4-methoxy-3′,5′-difluoropicolinanilide] | 80 to 100%
